The values below come from patent publication US20150038545A1, “HYDROXYPHENYL PYRROLE COMPOUNDS CONTAINING AN HYDROXAMIC ACID AS HDAC INHIBITORS AND MEDICINAL APPLICATIONS THEREOF” (UNIVERSIDAD DEL PAÍS VASCO, priority 2011, published 2015).

Assay [1] addresses T1, Human HDAC8 (Homo sapiens, UniProt Q9BY41).
T1 construct: Full length, MW=42 kDa, expressed in an E. coli expression system; purchased BioMol SE-145; host or cells: E. coli
T1 sequence (Q9BY41 1-377): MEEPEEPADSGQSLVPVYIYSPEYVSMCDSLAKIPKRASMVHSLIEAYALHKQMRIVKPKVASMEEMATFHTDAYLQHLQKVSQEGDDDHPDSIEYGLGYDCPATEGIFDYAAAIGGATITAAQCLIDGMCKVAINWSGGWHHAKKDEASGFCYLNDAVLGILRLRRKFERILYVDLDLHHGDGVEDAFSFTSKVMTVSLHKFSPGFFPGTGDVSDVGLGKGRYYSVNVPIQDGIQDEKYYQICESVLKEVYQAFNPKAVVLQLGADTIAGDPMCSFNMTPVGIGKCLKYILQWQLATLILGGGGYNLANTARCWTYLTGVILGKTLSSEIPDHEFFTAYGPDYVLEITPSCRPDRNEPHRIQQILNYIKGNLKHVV
Description: In vitro HDAC8 inhibition, fluorogenic peptide assay. The format is biochemical. As to conditions: for IC50: read-out: IC50 (nM) of enzyme activity HDAC8. The protocol: (§1) All HDAC assays were performed using acetylated AMC-labeled peptide substrate: • Substrate for isoforms HDAC1, 2, 3, 4, 5, 6, 7, 9, 10, 11 and HeLa nuclear extract assays: Acetylated fluorogenic peptide from p53 residues 379-382 (RHKKAc) (BioMol. Cat. # KI-104). • Substrate for HDAC8 assays: Acetylated fluorogenic peptide from p53 residues 379-382 (RHKAcKAc) (BioMol. Cat. # KI-178).
(§2) Enzymes: • HDAC1 assay: 75 nM Human HDAC1 (GenBank Accession No. NM_004964): Full length with C-terminal GST tag, MW=79.9 kDa, expressed by baculovirus expression system in Sf9 cells (BioMol. Cat. # SE-456). • HDAC2 assay: 5 nM Human HDAC2 (GenBank Accession No. Q92769): Full length with C-terminal His tag, MW=60 kDa, expressed by baculovirus expression system in Sf9 cells (BioMol. Cat. # SE-500). • HDAC3 assay: 2.3 nM Human HDAC3/NcoR2 (GenBank Accession No. NM_003883 for HDAC3, GenBank Accession No.NM_006312 for NcoR2): Complex of human HDAC3, full length with C-terminal His tag, MW=49.7 kDa, and human NCOR2, N-terminal GST tag, MW=39 kDa, co-expressed in baculovirus expression system (BioMol. Cat. # SE-507). • HDAC4 assay: 266 nM Human HDAC4 (GenBank Accession No. NM_006037): Amino acids 627-1085 with N-terminal GST tag, MW=75.2 kDa, expressed in baculovirus expression system (BioMol, Hamburg, Germany). • HDAC5 assay: 588 nM Human HDAC5 (GenBank Accession No. NM_001015053): Full length with Nterminal GST tag, MW=150 kDa, expressed by baculovirus expression system in Sf9 cells (BioMol, Hamburg, Germany). • HDAC6 assay: 13 nM Human HDAC6 (GenBank Accession No. BC069243): Full length with N-terminal GST tag, MW=159 kDa, expressed by baculovirus expression system in Sf9 cells (BioMol. Cat. # SE-508). • HDAC7 assay: 962 nM Human HDAC7 (GenBank Accession No. AY302468): Amino acids 518-end with N-terminal GST tag, MW=78 kDa, expressed in baculovirus expression system (BioMol, Hamburg, Germany). • HDAC8 assay: 119 nM Human HDAC8 (GenBank Accession No. NM018486): Full length, MW=42 kDa, expressed in an E. coli expression system (BioMol. Cat. # SE-145). • HDAC9 assay: 986 nM Human HDAC9 (GenBank Accession No. NM178423): Amino acids 604-1066 with C-terminal His tag, MW=50.7 kDa, expressed in baculovirus expression system (BioMol, Hamburg, Germany). • HDAC10 assay: 781 nM Human HDAC10 (GenBank Accession No. NM_032019): Amino acids 1-631 with Nterminal GST tag, MW=96 kDa, expressed by baculovirus expression system in Sf9 cells (BioMol. Cat. # SE-559). • HDAC11 assay: 781 nM Human HDAC11 (GenBank Accession No. NM_BC009676) with N-terminal GST tag, MW=66 kDa, expressed in baculovirus expression system (BioMol. Cat. # SE-560). • HeLaNuclear Extract assay: 25 ng/μl Nuclear Extract from HeLa Cells: Prepared by high salt extraction of HeLa nuclei (human cervical cancer cell line), this extract is a rich source of HDAC activity (BioMol. Cat. # KI-140).
(§3) The reactions were carried out in a 96-well microplate for fluorometry in a 50 μl reaction volume. After the deacetylation reaction, Fluor-de-Lys-Developer (BioMol Cat. # KI-105) was added to each well to digest the deacetylated substrate, thus producing the fluorescent signal. The reaction was allowed to develop for 45 minutes at 30° C. with 5% CO2; then the fluorescent signal was measured with an excitation wavelength at 360 nm and an emission wavelength at 460 nm in a microplate-reading fluorometer (GeminiXS; Molecular Devices, Sunnyvale, Calif.). […] All experiments were performed in triplicate. IC50 was calculated by fitting the experimental data to a dose-response curve. DMSO was used as negative control; Trichostatin A (Biomol Cat. # GR-309) was used as positive control inhibitor.

In assay [2] the test system is T2, Nuclear Extract from HeLa Cells.
T2 construct: 25 ng/μl Nuclear Extract from HeLa Cells: Prepared by high salt extraction of HeLa nuclei (human cervical cancer cell line)
Description: HeLa nuclear extract HDAC inhibition assay. The format is biochemical, Human. As to conditions: HeLa cell line nuclear extract. The protocol:
as §1, §2, §3

SMILES strings stand for the structures.

The IC50 is the concentration needed to halve the response being measured. Take `COc1ccc(-c2cc(-c3ccccc3)[nH]c2C(=O)NCCCCCC(=O)NO)cc1` [Compound A, N-[6-(hydroxyamino)-6-oxohexyl]-3-(4-methoxyphenyl)-5-phenyl-1H-pyrrole-2-carboxamide, reference compound]: the “Selectivity against HDAC6 (IC50 HDACx/IC50 HDAC6) HDAC8” value (shortened to “Selectivity against HDAC6”) in assay [1] is 9.6. The IC50 in assay [1] stood at 192 nM; in assay [2], 61 nM.

As for `COc1ccc(-c2cc(-c3ccccc3)c(C(=O)NCCCCCC(=O)NO)[nH]2)cc1` [Compound B, N-[6-(hydroxyamino)-6-oxohexyl]-5-(4-methoxyphenyl)-3-phenyl-1H-pyrrole-2-carboxamide, reference compound], in assay [1], the “Selectivity against HDAC6” value is 5.4 and the IC50 is 174 nM. Further, half-maximal inhibition in assay [2] (IC50) was put at 27 nM.

Regarding `O=C(CCCCCNC(=O)c1[nH]c(-c2ccccc2)cc1-c1ccc(O)cc1)NO` [Example 1, N-(6-(hydroxyamino)-6-oxohexyl)-3-(4-hydroxyphenyl)-5-phenyl-1H-pyrrole-2-carboxamide], the “Selectivity against HDAC6” value in assay [1] is 54.8. For the same molecule, the IC50 in assay [1] amounted to 767 nM; in assay [2], 31 nM.

On to `O=C(CCCCCNC(=O)c1[nH]c(-c2ccc(O)cc2)cc1-c1ccccc1)NO` [Example 2, N-(6-(hydroxyamino)-6-oxohexyl)-5-(4-hydroxyphenyl)-3-phenyl-1H-pyrrole-2-carboxamide], for which the “Selectivity against HDAC6” value in assay [1] is recorded as 21.3. Further, the IC50 in assay [1] is 162 nM; in assay [2] it was 18 nM.

With `O=C(CCCCCNC(=O)c1[nH]c(-c2ccsc2)cc1-c1ccc(O)cc1)NO` [Example 3, N-(5-(hydroxycarbamoyl)pentyl)-3-(4-hydroxyphenyl)-5-(3-thienyl)-1H-pyrrole-2-carboxamide], the IC50 in assay [1] was found to be 975 nM; in assay [2], 46 nM.

For `O=C(CCCCCNC(=O)c1[nH]c(-c2ccoc2)cc1-c1ccc(O)cc1)NO` [Example 4, 5-(3-furyl)-N-(5-(Hydroxycarbamoyl)pentyl)-3-(4-hydroxy-phenyl)-1H-pyrrole-2-carboxamide], the IC50 in assay [1] was 591 nM; in assay [2], 33 nM.

In the case of `O=C(CCCCCNC(=O)c1[nH]c(-c2ccc(O)cc2)cc1-c1ccoc1)NO` [Example 5, 3-(3-furyl)-N-(5-(hydroxycarbamoyl)pentyl)-5-(4-hydroxy-phenyl)-1H-pyrrole-2-carboxamide], the IC50 was found to be 278 nM in assay [1] and 1.6 nM in assay [2].

For the molecule `O=C(CCCCCNC(=O)c1[nH]c(-c2ccc(O)cc2)cc1-c1ccsc1)NO` [Example 6, N-(5-(hydroxycarbamoyl)pentyl)-5-(4-hydroxyphenyl)-3-(3-thienyl)-1H-pyrrole-2-carboxamide], the figures for the IC50 in assay [1] and in assay [2] were 104 nM and 7.3 nM, respectively.
